Entries after “also recorded” stand apart in the source; their conditions may differ.

In the data set the test system is HEK293T cells and NIH3T3 cells. Briefly: Evaluation of toxicity (CellTiter-Fluor Cell Viability Assay, CTF). The settings on record: lipid nanoparticle containing mRNA; number of surviving cells relative to cells without lipid nanoparticle set at 1; one rating per lipid, printed on the HEK293T line. The format is cell-based. How it is done:
For lipids (Ia), (Ib), and (Ie) of Examples 1, 2, and 5, a cell experiment was carried out by using HEK293T cells and NIH3T3 cells in order to evaluate lipid nanoparticles encapsulating an mRNA. By transfecting the cells with lipid nanoparticles and measuring the amount of a predetermined protein produced, the performance of the lipid nanoparticles used can be evaluated. Hereinafter, the procedure of the cell experiment will be shown.
A. Seeding of Cells • (i) A liquid medium (DMEM High glucose, FBS+, P/S+) was temperature-controlled in an incubator set at 37° C. • (ii) A cryotube containing cells was taken out from a −80° C. freezer and thawed at once in the incubator set at 37° C. • (iii) A test tube was subjected to a centrifuge to precipitate the cells. • (iv) The supernatant was aspirated, and the liquid medium was added and gently tapped to disperse the cells. • (v) A small amount of the cells-dispersed liquid medium was collected, and the number of cells was observed and counted under a microscope. • (vi) The cells were seeded in three 24-well black plates such that the number of cells was 1×10^4 cells per well. The 24-well black plates were placed in an incubator, and the cells were cultured for 24 hours under conditions of 37° C. and 5% CO2. […]
D. Evaluation of Toxicity (CellTiter-Fluor (Registered Trademark) Cell Viability Assay) • (i) The CellTiter-Fluor (registered trademark) Cell Viability (CTF) Assay Reagent was completely thawed in a 37° C. water bath. • (ii) GF-AFC Substrate was uniformly mixed by using a vortex mixer. • (iii) The required amounts of Buffer and GF-AFC Substrate attached to the CTF Assay Reagent (Kit) were mixed at a mixing ratio of 10 mL:10 μL. • (iv) 100 μL per well of the mixed CTF Reagent mixture was added to a 24-well black plate containing the cells cultured in B. (v) above, and the plate was quickly shielded from light with aluminum foil, and then shaken on a plate shaker for 30 seconds. • (v) The plate was placed in an incubator, […], and the cells were cultured for 30 minutes under conditions of 37° C. and 5% CO2. • (vi) The fluorescence intensity was measured with a plate reader (excitation wavelength of 380 nm, fluorescence wavelength of 505 nm). Based on the obtained measurement results, the number of surviving cells was calculated with the fluorescence intensity of cells to which no lipid nanoparticle was added set at 1. […]
As for `CCCCCCCC/C=C\CCCCCCCCC(CCCCCCC/C=C\CCCCCCCC)OC(=O)C(CCC(=O)O)NC(=O)C(N)CCCNC(=N)N` (stereo not drawn) [Example 2, 4-(2-amino-5-guanidinopentanamido)-5-(((9Z,27Z)-hexatriaconta-9,27-dien-18-yl)oxy)-5-oxopentanoic acid], the “CTF Assay” value was “low cytotoxicity; also recorded: ⊚ (When the number of surviving cells was more than 0.80 and 1.00 or less, a rating of double-circle (excellent) was given)”. The same measure for `CCCCCCCC/C=C\CCCCCCCCC(CCCCCCC/C=C\CCCCCCCC)OC(=O)C(CC(=O)O)NC(=O)C(N)CCCNC(=N)N` (stereo not drawn) [Example 1, 3-(2-amino-5-guanidinopentanamido)-4-(((9Z,27Z)-hexatriaconta-9,27-dien-18-yl)oxy)-4-oxobutanoic acid]: “low cytotoxicity; also recorded: ⊚ (When the number of surviving cells was more than 0.80 and 1.00 or less, a rating of double-circle (excellent) was given)”; for `CCCCCCCC/C=C\CCCCCCCCC(CCCCCCC/C=C\CCCCCCCC)OC(=O)C(NC(=O)C(N)CCCNC(=N)N)C(C)O` [Example 5, (9Z,27Z)-hexatriaconta-9,27-dien-18-yl (2S)-2-((S)-2-amino-5-guanidinopentanamido)-3-hydroxybutanoate]: “low cytotoxicity; also recorded: ⊚ (When the number of surviving cells was more than 0.80 and 1.00 or less, a rating of double-circle (excellent) was given)”.

For the origin of these results see patent US20240148664A1, “LIPID AND COMPOSITION” (SOGO PHARMACEUTICAL CO., LTD., priority 2021, published 2024).
